Patent publication US20200399238A1, “THERAPEUTIC AURONES” (MIDDLE TENNESSEE STATE UNIVERSITY, priority 2016, published 2020)
Like-named read-outs stand apart in the source and are kept apart here.

Experiments:
[1] = tested on: rat skeletal muscle cell line, L6; assay: cells; assay type: cell-based
[2] = tested on: Leishmania amazonensis promastigotes expressing beta-lactamase; assay: microbe, parasite or virus in culture; assay type: cell-based
[3] = tested on: Trypanosoma cruzi Tulahuen trypomastigotes; assay: T. cruzi extracellular assay (CellTiter Glo); assay type: cell-based; conditions: for IC50: Trypanosoma cruzi, TULAHUEN; for Selectivity L6/Tc: T. cruzi IC50 from extracellular assay (^b); for Selectivity L6/Tc (T. cruzi value from extracellular assay): L6 IC50 / T. cruzi IC50 (extracellular assay)
[4] = tested on: Trypanosoma brucei brucei 427 cells; assay: T. brucei culture and assay (PrestoBlue); assay type: cell-based; conditions: for IC50: mean of 2(+) independent trials, read-out: IC50 T. brucei
[5] = tested on: TNFα; assay: Cytokine response by ELISA, TNFα; assay type: cell-based, human; conditions: Homo sapiens, LPS-stimulated THP-1 cells, mean ± SD, read-out: Average % TNF-α Inhibition
Description: Dexamethasone is a synthetic glucocorticoid that suppresses LPS-induced pro-inflammatory cytokine expression and was used as a control (Abraham, Lawrence et al. 2006). Supernatants were collected for human cytokine ELISAs and the manufacturer's protocol was followed to assess the cytokine response. Cells remaining after the supernatant collection were tested for relative viability by Alamar Blue cytotoxicity assay as previously described.

[6] = tested on: Trypanosoma cruzi Tulahuen cells expressing beta-galactosidase; assay: T. cruzi intracellular assay (beta-galactosidase, L6 host cells); conditions: Trypanosoma cruzi, TULAHUEN
[7] = tested on: C. albicans (ATCC strain 90028); assay: Antifungal microdilution broth assay (PrestoBlue), C. albicans; assay type: cell-based, Candida albicans; conditions: Candida albicans, ATCC90028, Table 4B; C. albicans; 100 μM; value ± spread; read-out: Percent Inhibition (at 100 μM)
Description: Sigma-Aldrich) was used as the base medium for testing. […] solution of morpholinepropanesulfonic acid (MOPS; Sigma-Aldrich) was added to the RPMI to a final concentration of 0.165 M for buffering (RPMI-MOPS). This medium was adjusted to a pH of 7.0 with 10 M NaOH and filter sterilized. C. albicans (ATCC strain 90028), C. [NT] strain 66032), and C. tropicalis (ATCC strain 750) were cultured on potato dextrose agar (Sigma-Aldrich) plates, and incubated at 35° C. for 24 hours. For antifungal testing, overnight colonies were adjusted to 1.5×10^3 cells/mL, hereafter referred to as the test inoculum. PrestoBlue® (Life Technologies, Invitrogen, Carlsbad, Calif.), a resazurin-based cell viability reagent that, in metabolically active cells, is reduced from blue, non-fluorescent resazurin, to red, fluorescent resorufin, was used to assess inhibition of yeast growth by the aurones. […] Following addition of aurone, plates were then incubated for 24 hours at 35° C. PrestoBlue was added to a final concentration of 10% in each well and fluorescence read at 560 nm excitation and 590 nm emission, per manufacturer instructions, using a SpectraMax M2e spectrophotometer (Molecular Devices, LLC, Sunnyvale, Calif.). To optimize the PrestoBlue reduction time, RFUs were collected at 15 minute intervals for 4 hours using a reference antifungal. […] IC50 determination was calculated using GraphPad Prism version 7.01 for Windows (GraphPad Software, Inc., La Jolla, Calif.) from the RFUs at dilution points. Calculations were made with a nonlinear regression after transforming the molar concentrations of the aurones into the logarithmic form. Graphing was accomplished utilizing the same program following a four parameter curve fitting sigmoidal plot of the data. All aurones and controls were tested in triplicate and all testing was repeated in at least three independent experiments.

[8] = Rattus norvegicus, Table 1, read-out: IC50 Toxicity (L6)
[9] = Leishmania amazonensis, read-out: IC50 L. amaz.
[10] = Leishmania amazonensis, read-out: IC50 L. amaz. (footnote c: value obtained from one trial)
[11] = Table 1, ^b extracellular T. cruzi assay, read-out: IC50 T. cruzi
[12] = Table 2, extracellular assay, read-out: IC50 T. cruzi (footnote b: Extracellular T. cruzi assay)
[13] = Table 2, L6 mammalian cells, read-out: IC50 Toxicity (L6)
[14] = Table 2, L6 IC50 / L. amazonensis IC50
[15] = Table 2, L6 IC50 / T. brucei IC50

Compound: CC(=O)N1/C(=C\c2ccc(CO)o2)C(=O)c2ccccc21 [AA4A]
- IC50 [1, 8]: 87 µM
- IC50 [2, 9]: < 1 µM
- IC50 [2, 10]: < 1 µM
- IC50 [3, 11]: > 50 µM
- IC50 [3, 12]: > 50 µM
- IC50 ([4]; Trypanosoma brucei, Table 1): 34.7 µM

Compound: O=C1/C(=C/c2ccc(CO)o2)Oc2ccccc21 [Aurone 1]
- inhibition at 40 µM [5]: 51.8 ± 13.5%
- inhibition at 80 µM ([5]; 80 μM): 93.8 ± 0.7%

Compound: O=C1/C(=C/c2ccccc2O)Oc2ccccc21 [Aurone 4, (Z)-2-(2-hydroxybenzylidene)benzofuran-3(2H)-one]
- inhibition at 40 µM [5]: 15.4 ± 5.3%

Compound: COc1cc(/C=C2\Oc3ccccc3C2=O)ccc1O [Aurone 7, (Z)-2-(4-hydroxy-3-methoxybenzylidene)benzofuran-3(2H)-one]
- inhibition at 40 µM [5]: 10.4 ± 4.7%

Compound: COc1ccc(/C=C2\Oc3ccccc3C2=O)cc1O [Aurone 9, (Z)-2-(3-hydroxy-4-methoxybenzylidene)benzofuran-3(2H)-one]
- inhibition at 40 µM [5]: 14.9 ± 7.2%

Compound: O=C1/C(=C/c2cc(Br)cc(Br)c2O)Oc2ccccc21 [Aurone 3012, (Z)-2-(3,5-dibromo-2-hydroxybenzylidene)benzofuran-3(2H)-one]
- IC50 [1, 8]: > 100 µM
- IC50 ([1]; Rattus norvegicus, Table 3A, weighted means of two or more independent trials, read-out: IC50 L6): > 100 µM
- IC50 [1, 13]: > 100 µM
- IC50 [2, 9]: 1.21 µM
- Selectivity L6/La ([2]; Table 1): >82.64
- Selectivity L6/La [2, 14]: >82.64
- Selectivity L6/Tc ([3]; Table 1): >2.49
- Selectivity L6/Tc (T. cruzi value from extracellular assay) ([3]; Table 2): >2.49
- IC50 [3, 11]: 40.1 µM
- IC50 [3, 12]: 40.1 µM
- IC50 ([6]; read-out: IC50 TC-I, Table 3A, weighted means of two or more independent trials): > 50 µM
- IC50 ([4]; Table 2): > 50 µM
- IC50 ([4]; Trypanosoma brucei, Table 1): > 50 µM

Compound: Cc1ccc2c(c1)C(=O)/C(=C/c1ccc(C#N)cc1)O2 [Aurone 4001, (Z)-4-((5-methyl-3-oxobenzofuran-2(3H)-ylidene)methyl)benzonitrile]
- IC50 [1, 8]: 76.2 µM
- IC50 [2, 9]: 38.4 µM
- Selectivity L6/La ([2]; Table 1): 1.98
- Selectivity L6/La [2, 14]: 1.98
- Selectivity L6/Tc ([3]; Table 1): 2.40
- Selectivity L6/Tc (T. cruzi value from extracellular assay) ([3]; Table 2): 2.40
- IC50 [3, 11]: 31.7 µM
- IC50 [3, 12]: 31.7 µM
- Selectivity L6/Tb ([4]; Table 1): 28.66
- Selectivity L6/Tb [4, 15]: 28.66
- IC50 ([4]; Trypanosoma brucei, Table 1): 2.66 µM
- melting point: 148 to 152 °C

Compound: Cc1ccc2c(c1)C(=O)/C(=C/c1ccc(Br)cc1)O2 [Aurone 4002, (Z)-2-(4-bromobenzylidene)-5-methylbenzofuran-3(2H)-one]
- IC50 [1, 8]: > 100 µM
- IC50 [2, 9]: 19.7 µM
- Selectivity L6/La ([2]; Table 1): >5.07
- IC50 [3, 11]: > 50 µM
- Selectivity L6/Tb ([4]; Table 1): >2.34
- IC50 ([4]; Trypanosoma brucei, Table 1): 42.8 µM
- melting point: 171 to 175 °C

Compound: COc1ccc(/C=C2\Oc3ccc(C)cc3C2=O)c(OC)c1OC [Aurone 4004, (Z)-5-methyl-2-(2,3,4-trimethoxybenzylidene)benzofuran-3(2H)-one]
- IC50 [1, 8]: 43.9 µM
- IC50 [2, 9]: 4.04 µM
- Selectivity L6/La ([2]; Table 1): 10.86
- Selectivity L6/La [2, 14]: 10.86
- IC50 [3, 11]: > 50 µM
- IC50 [3, 12]: > 50 µM
- Selectivity L6/Tb ([4]; Table 1): 2.23
- Selectivity L6/Tb [4, 15]: 2.23
- IC50 ([4]; Trypanosoma brucei, Table 1): 19.7 µM
- melting point: 74 to 78 °C

Compound: Cc1ccc2c(c1)C(=O)/C(=C/c1ccc(O)cc1)O2 [Aurone 4005, (Z)-2-(4-hydroxybenzylidene)-5-methylbenzofuran-3(2H)-one]
- IC50 [1, 8]: > 100 µM
- IC50 [1, 13]: > 100 µM
- IC50 [2, 9]: 3.58 µM
- Selectivity L6/La ([2]; Table 1): >27.93
- Selectivity L6/La [2, 14]: >27.93
- IC50 [3, 11]: > 50 µM
- IC50 [3, 12]: > 50 µM
- IC50 ([4]; Table 2): > 50 µM
- IC50 ([4]; Trypanosoma brucei, Table 1): > 50 µM
- melting point: 228 to 231 °C

Compound: Cc1ccc2c(c1)C(=O)/C(=C/c1ccccc1C(F)(F)F)O2 [Aurone 4006, (Z)-5-methyl-2-(2-(trifluoromethyl)benzylidene)benzofuran-3(2H)-one]
- IC50 [1, 8]: 72.9 µM
- IC50 [2, 9]: 9.7 µM
- Selectivity L6/La ([2]; Table 1): 7.52
- Selectivity L6/La [2, 14]: 7.52
- Selectivity L6/Tc ([3]; Table 1): 4.62
- Selectivity L6/Tc (T. cruzi value from extracellular assay) ([3]; Table 2): 4.62
- IC50 [3, 11]: 15.8 µM
- IC50 [3, 12]: 15.8 µM
- Selectivity L6/Tb ([4]; Table 1): 2.41
- Selectivity L6/Tb [4, 15]: 2.41
- IC50 ([4]; Trypanosoma brucei, Table 1): 30.2 µM
- melting point: 121 to 124 °C

Compound: O=C1/C(=C/c2ccc(C(F)(F)F)cc2)Oc2ccc(Br)cc21 [Aurone 6001, (Z)-5-bromo-2-(4-(trifluoromethyl)benzylidene)benzofuran-3(2H)-one]
- IC50 [1, 8]: > 100 µM
- IC50 [1, 13]: > 100 µM
- IC50 [2, 9]: 7.29 µM
- Selectivity L6/La ([2]; Table 1): >13.72
- Selectivity L6/La [2, 14]: >13.72
- IC50 [3, 11]: > 50 µM
- IC50 [3, 12]: > 50 µM
- IC50 ([4]; Table 2): > 50 µM
- IC50 ([4]; Trypanosoma brucei, Table 1): > 50 µM
- melting point: 120 to 125 °C

Compound: O=C1/C(=C/c2ccc(Br)cc2)Oc2ccc(Br)cc21 [Aurone 6002, (Z)-5-bromo-2-(4-bromobenzylidene)benzofuran-3(2H)-one]
- IC50 [1, 8]: > 100 µM
- IC50 [2, 9]: 11 µM
- Selectivity L6/La ([2]; Table 1): >9.07
- IC50 [3, 11]: > 50 µM
- Selectivity L6/Tb ([4]; Table 1): >2.38
- IC50 ([4]; Trypanosoma brucei, Table 1): 42 µM
- melting point: 126 to 130 °C

Compound: N#Cc1ccc(/C=C2\Oc3ccc(Br)cc3C2=O)cc1 [Aurone 6003, (Z)-4-((5-bromo-3-oxobenzofuran-2(3H)-ylidene)methyl)benzonitrile]
- IC50 [1, 8]: > 100 µM
- IC50 [1, 13]: > 100 µM
- IC50 [2, 9]: 1.22 µM
- Selectivity L6/La ([2]; Table 1): >81.97
- Selectivity L6/La [2, 14]: >81.97
- IC50 [3, 11]: > 50 µM
- IC50 [3, 12]: > 50 µM
- Selectivity L6/Tb ([4]; Table 1): >5.85
- Selectivity L6/Tb [4, 15]: >5.85
- IC50 ([4]; Trypanosoma brucei, Table 1): 17.1 µM

Compound: COc1cc(OC)c2c(c1)O/C(=C\c1ccc(C#N)cc1)C2=O [Aurone 7002, (Z)-4-((4,6-dimethoxy-3-oxobenzofuran-2(3H)-ylidene)methyl)benonitrile]
- IC50 [1, 8]: 82.5 µM
- IC50 [2, 9]: 2.08 µM
- IC50 [2, 10]: 2.08 µM
- Selectivity L6/La ([2]; Table 1): 39.68
- Selectivity L6/La [2, 14]: 39.68
- IC50 [3, 11]: > 50 µM
- IC50 [3, 12]: > 50 µM
- IC50 ([4]; Table 2): > 50 µM
- IC50 ([4]; Trypanosoma brucei, Table 1): > 50 µM
- melting point: 220 to 223 °C

Compound: Cc1cccc(/C=C2\Oc3ccccc3C2=O)c1 [Aurone 9064, (Z)-2-(3-methylbenzylidene)benzofuran-3(2H)-one]
- IC50 [1, 8]: 79.9 µM
- IC50 [2, 9]: 4.4 µM
- IC50 [3, 11]: 18.4 µM
- IC50 [3, 12]: 18.4 µM
- IC50 ([4]; Trypanosoma brucei, Table 1): 32.6 µM
- melting point: 74 to 75 °C

Compound: O=C1/C(=C/c2ccccc2O)Oc2ccccc21 [Aurone 9088, (Z)-2-(2-hydroxybenzylidene)benzofuran-3(2H)-one]
- IC50 [1, 8]: > 100 µM
- IC50 [2, 9]: 9.54 µM
- inhibition at 100 µM [7]: 1 ± 1.1%
- IC50 ([6]; read-out: IC50 T. cruzi, Table 1, intracellular assay, mean of 2(+) trials (^c one trial)): 18.4 µM
- IC50 ([6]; read-out: IC50 T. cruzi, Table 2, intracellular assay, mean of 2(+) independent trials): 18.4 µM
- IC50 ([4]; Trypanosoma brucei, Table 1): > 50 µM
- melting point: 215 to 216 °C

Compound: N=C1/C(=C/c2ccccn2)Oc2ccc(F)cc21 [Aurone 9312, (Z)-5-fluoro-2-(pyridin-2-ylmethylene)benzofuran-3(2H)-imine]
- IC50 [1, 8]: > 200 µM
- IC50 [1, 13]: > 200 µM
- IC50 [2, 9]: < 1 µM
- Selectivity L6/La ([2]; Table 1): >200
- Selectivity L6/La [2, 14]: >200
- IC50 ([2]; read-out: IC50 L. amaz., Table 2, mean of 2(+) independent trials): < 1 µM
- IC50 [3, 11]: > 50 µM
- IC50 [3, 12]: > 50 µM
- IC50 ([4]; Table 2): > 50 µM
- IC50 ([4]; Trypanosoma brucei, Table 1): > 50 µM

Compound: O=C1/C(=C/c2ccc(CO)o2)Sc2ccccc21 [TA2]
- IC50 [1, 8]: > 200 µM
- IC50 [2, 9]: < 1 µM
- IC50 [3, 11]: > 50 µM
- IC50 [3, 12]: > 50 µM
- IC50 ([4]; Trypanosoma brucei, Table 1): 11.4 µM
